The values below come from patent publication US7964613B2 (Asahi Kasei Pharma Corporation, priority 2007, dated 2011).

Test [1] deals with rabbit normal intraocular pressure. Kind of test: Intraocular pressure reducing action. Type of test: in vivo, Japanese white rabbit. Conditions: Oryctolagus cuniculus, topical; 3 mM aqueous solution, 50 μl to the left eye; max IOP reduction (2, 4, 6 hours) / value immediately before administration; read-out: intraocular pressure reducing degree. Here is the method: A Japanese white rabbit having a body weight of about 2 kg was placed in a positioner and naturalized for one week before the experiment. An opthalmologic local anesthesant (Benoxil) was administered to both eyes, and then intraocular pressure was measured by using a tonometer (Classic 30, Solan). A 3 mM aqueous solution of a test compound was administered in a volume of 50 μl to the left eye, and the right eye was not treated (control eye). The intraocular pressure values were measured for the left and right eyes immediately before, and 2, 4 and 6 hours after the administration of the aqueous solution of the test compound, and the difference of the measured values for the left and right eyes was considered an intraocular pressure reduction value of the test medicament at each measurement time. The largest difference of the values for the left and right eyes among the measured values at the measurement times (after 2, 4 and 6 hours) was considered the maximum intraocular pressure reduction value (max ? IOP) of each test medicament. The intraocular pressure reducing degree representing the intraocular pressure reducing action of each test medicament was calculated according to the following formula. Since rabbits show significant daily variation of intraocular pressure, daily variation is added when change of intraocular pressure is measured over time, and the intraocular pressure reducing action may be overestimated. Therefore, we used this calculation method of intraocular pressure reduction value in order to minimize the influence of the variation. Intraocular pressure reducing degree(%)=(max ? IOP/Intraocular pressure value immediately before administration)×100

The target of another test is T1, human ROCK1 (Homo sapiens, UniProt Q13464).
T1 construct: His tag (N); host or cells: insect cells (Sf9)
The test can be described thus: Measurement of Rho kinase inhibitory activity (ELISA of MBS phosphorylation). Conditions: human ROCK1, MBS substrate, 100 μM ATP, 30° C. for 10 minutes. Type of test: biochemical. On the procedure: In this test, human ROCK1 was used as Rho kinase, MBS (myosin binding subunit, subunit constituting myosin phosphatase) was used as the substrate of Rho kinase, and an anti-phosphorylated MBS antibody was used for detection of phosphorylation. The activity for inhibiting Rho kinase was determined by measuring phosphorylation of MBS by the Rho kinase by ELISA in the presence of an appropriately diluted test compound. As the Rho kinase used, a recombinant protein (N-terminal His-tagged recombinant human ROCK1 residues (1Met-[…])) was used, which was produced in insect cells (Sf9) using a sequence (1-727), of which activity was confirmed in the paper of Ishizaki et al. (Ishizaki, T. et al., FEBS Letters, 404, pp 118-124, 1997), based on the sequence of human ROCK1 (p 160 ROCK) described in the report of Ishizaki et al. (Ishizaki, T. et al., EMBO J., 15, pp 1885-1893, 1996). Further, as the MBS protein and anti-phosphorylated MBS antibody, those prepared according to the method described in the paper of Ito et al. (Ito, K et al., J. Physiol., 546, pp 823-836, 2003) were used.
A solution of MBS (Asahi Kasei Pharma, lot No, 040814n7-10) diluted with PBS to an appropriate concentration was added to an ELISA plate (Maxisorp, Nunc), and left, stand overnight at 4° C., and then the wells were washed twice with a washing solution (WB, washing buffer, 0.1% Tween 20/PBS). To the wells were added 1% bovine serum albumin (Sigma)/PBS, and left for 1 to 3 hours, and then the wells were washed 5 times with WB to prepare a substrate-immobilized plate. Onto this plate, a reaction mixture (5 mM MgSO4/0.1 M NaCl/20 mM HEPES (pH 7.5)/100 μM ATP/5 mM DTT), a test compound, and appropriately diluted human ROCK1 (Asahi Kasei Pharma, lot No, 030126.120-22) were added, and then reacted at 30° C. for 10 minutes. Then, 0.2 M EDTA (pH 7.5) was added to terminate the reaction, and the wells were washed 5 times with WB. A rabbit anti-phosphorylated MBS antibody solution (Asahi Kasei Pharma, lot No, 122676431) diluted 10,000 times with WB containing 1% bovine serum albumin was added to the wells, and after the reaction for 1 hour, the wells were washed 5 times with WB. Goat anti-rabbit IgG-HRP (Zymed) diluted 1,000 times with WB containing 1% bovine serum albumin was added to the wells as the secondary detection antibody and the mixture was reacted for 1 hour, and then the wells were washed 5 times with WB. An OPD (o-phenylenediamine) solution (1 mg/ml OPD, Sigma), 5.1 g/l of citric acid monohydrate, and 18.4 g/l of Na2HPO4.12H2O were added to the wells to develop color, […] was added 5 minutes later to terminate the color development, and absorbance was measured at 490 nm.
The inhibition ratio was calculated as follows. Inhibition ratio(%)=[…]
Further, the inhibition ratio was calculated with changing the concentration of the test compound, and a compound concentration providing an inhibition ratio of 50% was obtained as IC50.
Background: An ELISA detects its analyte on a solid surface through an enzyme-linked reagent.

The structures appear in SMILES notation.

The term IC50 denotes the concentration at which inhibition is half-maximal. Lower therefore signals greater potency in that assay.

T1 sequence (Q13464 1-727): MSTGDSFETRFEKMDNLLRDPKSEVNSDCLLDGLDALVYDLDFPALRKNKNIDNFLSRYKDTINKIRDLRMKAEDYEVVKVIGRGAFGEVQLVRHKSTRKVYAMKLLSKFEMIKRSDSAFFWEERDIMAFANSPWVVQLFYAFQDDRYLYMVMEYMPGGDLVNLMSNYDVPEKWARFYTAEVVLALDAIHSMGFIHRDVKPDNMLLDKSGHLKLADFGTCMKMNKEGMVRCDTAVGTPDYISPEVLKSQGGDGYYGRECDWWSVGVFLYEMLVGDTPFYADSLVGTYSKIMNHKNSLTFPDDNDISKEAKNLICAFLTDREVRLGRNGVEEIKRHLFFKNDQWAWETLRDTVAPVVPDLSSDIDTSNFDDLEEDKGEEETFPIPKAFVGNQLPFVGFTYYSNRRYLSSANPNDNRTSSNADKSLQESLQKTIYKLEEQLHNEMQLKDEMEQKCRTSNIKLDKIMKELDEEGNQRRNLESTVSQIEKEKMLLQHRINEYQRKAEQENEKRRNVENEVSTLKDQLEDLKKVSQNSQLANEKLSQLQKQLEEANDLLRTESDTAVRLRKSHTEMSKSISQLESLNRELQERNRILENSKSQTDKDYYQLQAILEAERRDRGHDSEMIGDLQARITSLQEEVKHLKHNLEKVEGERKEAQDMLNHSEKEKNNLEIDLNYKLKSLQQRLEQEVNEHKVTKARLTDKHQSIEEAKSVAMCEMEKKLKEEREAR

`O=S(=O)(c1cccc2cncc(Br)c12)N1CC[C@H](NCc2ccoc2)C1` [Example 1-14]: the inhibition in vivo at 3000 µM in test [1] lay in the range of 5 to 10%. Also, the IC50 at human ROCK1 was under 1 µM.

For the compound `Cc1nc(CN[C@H]2CCN(S(=O)(=O)c3cccc4cncc(Br)c34)C2)c[nH]1` [Example 1-19], the inhibition in vivo at 3000 µM in test [1] was in the range of 5 to 10%. The compound further had a half-maximal inhibitory concentration (IC50) at human ROCK1 of 1 to 3 µM.

As to `Cn1cccc1CN[C@H]1CCN(S(=O)(=O)c2cccc3cncc(Br)c23)C1` [Example 1-20], the inhibition in vivo at 3000 µM in test [1] was in the range of 10 to 20%. The IC50 against human ROCK1 was under 1 µM.

For the compound `NCCN[C@H]1CCN(S(=O)(=O)c2cccc3cncc(Br)c23)C1` [Example 1-31], in test [1], the inhibition in vivo at 3000 µM was 10 to 20%. The compound also gave an IC50 against human ROCK1 of under 1 µM.

Turning to `N[C@H]1CCN(S(=O)(=O)c2cccc3c(O)ncc(Br)c23)C1` [Example 7-1, (S)-3-Amino-1-(1-hydroxy-4-bromo-5-isoquinolinesulfonyl)pyrrolidine], the inhibition in vivo at 3000 µM in test [1] is at least 20%. Further, the IC50 on human ROCK1 is under 1 µM.

For the compound `Cc1cncc2cccc(S(=O)(=O)N3CC[C@@H](N)C3)c12` [Example 8-2, (R)-3-Amino-1-(4-methyl-5-isoquinolinesulfonyl)pyrrolidine], the inhibition in vivo at 3000 µM in test [1] was at least 20%. The IC50 at human ROCK1 was under 1 µM.

Regarding `CCN[C@H]1CCN(S(=O)(=O)c2cccc3cncc(C)c23)C1` [Example 8-4], the inhibition in vivo at 3000 µM in test [1] lay in the range of 10 to 20%. This compound came in with a concentration for half-maximal inhibition (IC50) against human ROCK1 of under 1 µM.

With `Cc1cncc2cccc(S(=O)(=O)N3CC[C@H](NCc4cccn4C)C3)c12` [Example 8-21], the inhibition in vivo at 3000 µM in test [1] lay in the range of 10 to 20%. At human ROCK1, this compound showed an IC50 of under 1 µM.

On to `Cc1cncc2cccc(S(=O)(=O)N3CC[C@H](NCC4CC4)C3)c12` [Example 8-26], for which the inhibition in vivo at 3000 µM in test [1] fell in the range of 5 to 10%. Also, the concentration for half-maximal inhibition (IC50) at human ROCK1 was under 1 µM.

In the case of `Cc1cncc2cccc(S(=O)(=O)N3CC[C@H](NC(C)C)C3)c12` [Example 8-27], in test [1], the inhibition in vivo at 3000 µM was in the range of 10 to 20%. The compound further displayed a concentration for half-maximal inhibition (IC50) against human ROCK1 of 1 to 3 µM.

Take `Cc1cncc2cccc(S(=O)(=O)N3CC[C@H](NC4CCC4)C3)c12` [Example 8-28]: the inhibition in vivo at 3000 µM in test [1] fell in the range of 5 to 10%. On human ROCK1, this compound registered a concentration for half-maximal inhibition (IC50) of under 1 µM.

As for `Cc1cncc2cccc(S(=O)(=O)N3CC[C@H](NC4CCCC4)C3)c12` [Example 8-29], in test [1], the inhibition in vivo at 3000 µM lay in the range of 5 to 10%. Also, the IC50 against human ROCK1 lay within 1 to 3 µM.

With `Cc1cncc2cccc(S(=O)(=O)N3CC[C@H](NC4CCCCC4)C3)c12` [Example 8-30], the inhibition in vivo at 3000 µM in test [1] is 5 to 10%. The compound also displayed a concentration for half-maximal inhibition (IC50) on human ROCK1 of 1 to 3 µM.

On to `Cc1cncc2cccc(S(=O)(=O)N3CC[C@H](NC4CCOCC4)C3)c12` [Example 8-31], for which, in test [1], the inhibition in vivo at 3000 µM lay within 10 to 20%. On human ROCK1, this compound gave an IC50 of 1 to 3 µM.

Turning to `Cc1cncc2cccc(S(=O)(=O)N3CC[C@H](NCCN)C3)c12` [Example 8-32], in test [1], the inhibition in vivo at 3000 µM is 5 to 10%. The IC50 at human ROCK1 was under 1 µM.

Take `C=CCN[C@H]1CCN(S(=O)(=O)c2cccc3cncc(C)c23)C1` [Example 8-34]: the inhibition in vivo at 3000 µM in test [1] lay within 5 to 10%. For the same compound, the 50% inhibitory concentration (IC50) against human ROCK1 was under 1 µM.

Take `Cc1cncc2cccc(S(=O)(=O)N3CC[C@H](NCCc4ccccc4)C3)c12` [Example 8-37]: the inhibition in vivo at 3000 µM in test [1] lay within 5 to 10%. This compound also yielded a half-maximal inhibitory concentration (IC50) at human ROCK1 of under 1 µM.

`C=Cc1cncc2cccc(S(=O)(=O)N3CC[C@H](N)C3)c12` [Example 9-1, (S)-3-Amino-1-(4-vinyl-5-isoquinolinesulfonyl)pyrrolidine]: in test [1], the inhibition in vivo at 3000 µM is at least 20%. Moreover, on human ROCK1, the IC50 is under 1 µM.

Turning to `C#Cc1cncc2cccc(S(=O)(=O)N3CC[C@H](NCc4ccc(OC)cc4)C3)c12` [Example 10-7], the inhibition in vivo at 3000 µM in test [1] lay in the range of 10 to 20%. This compound also yielded an IC50 against human ROCK1 of under 1 µM.

`Nc1cncc2cccc(S(=O)(=O)N3CC[C@H](N)C3)c12` [Example 12-1, (S)-3-Amino-1-(4-amino-5-isoquinolinesulfonyl)pyrrolidine]: in test [1], the inhibition in vivo at 3000 µM lay within 10 to 20%. Moreover, the half-maximal inhibitory concentration (IC50) against human ROCK1 lay in the range of 1 to 3 µM.

As to `COc1cncc2cccc(S(=O)(=O)N3CC[C@H](N)C3)c12` [Example 15-1, (S)-3-Amino-1-(4-methoxy-5-isoquinolinesulfonyl)pyrrolidine], the inhibition in vivo at 3000 µM in test [1] lay within 5 to 10%. The compound also yielded a concentration for half-maximal inhibition (IC50) at human ROCK1 of 1 to 3 µM.

For the compound `COc1ccc(CN[C@H]2CCN(S(=O)(=O)c3cccc4cncc(F)c34)C2)cc1` [Example 18-7], the inhibition in vivo at 3000 µM in test [1] was 5 to 10%. Also, the IC50 against human ROCK1 was under 1 µM.

For the compound `N[C@@H]1CCN(S(=O)(=O)c2cccc3cncc(Cl)c23)C1` [Example 19-2, (R)-3-Amino-1-(4-chloro-5-isoquinolinesulfonyl)pyrrolidine], the inhibition in vivo at 3000 µM in test [1] is at least 20%. In addition, on human ROCK1, the IC50 is under 1 µM.

For `NCCN[C@H]1CCN(S(=O)(=O)c2cccc3cncc(Cl)c23)C1` [Example 19-32], in test [1], the inhibition in vivo at 3000 µM is at least 20%. Besides, the IC50 against human ROCK1 fell in the range of 1 to 3 µM.

Consider `O=S(=O)(c1cccc2cncc(Cl)c12)N1CC[C@H](NCc2ccc3c(c2)OCCO3)C1` [Example 19-40], for which the inhibition in vivo at 3000 µM in test [1] lay in the range of 5 to 10%. The IC50 at human ROCK1 was under 1 µM.

In the case of `N[C@H]1CCCN(S(=O)(=O)c2cccc3cncc(Cl)c23)C1` [Example 21-1, (S)-3-Amino-1-(4-chloro-5-isoquinolinesulfonyl)piperidine], the inhibition in vivo at 3000 µM in test [1] was at least 20%. In addition, the concentration for half-maximal inhibition (IC50) against human ROCK1 was in the range of 1 to 3 µM.

Turning to `N[C@@H]1CCCN(S(=O)(=O)c2cccc3cncc(Cl)c23)C1` [Example 21-2, (R)-3-Amino-1-(4-chloro-5-isoquinolinesulfonyl)piperidine], the inhibition in vivo at 3000 µM in test [1] lay in the range of 10 to 20%. The same compound had a half-inhibitory concentration (IC50) against human ROCK1 of 1 to 3 µM.

For the compound `Cc1cncc2cccc(S(=O)(=O)N3CCC[C@H](N)C3)c12` [Example 22-1, (S)-3-Amino-1-(4-methyl-5-isoquinolinesulfonyl)piperidine], the inhibition in vivo at 3000 µM in test [1] lay within 10 to 20%. At human ROCK1, this compound had an IC50 of under 1 µM.

With `Cc1cncc2cccc(S(=O)(=O)N3CCC[C@@H](N)C3)c12` [Example 22-2, (R)-3-Amino-1-(4-methyl-5-isoquinolinesulfonyl)piperidine], in test [1], the inhibition in vivo at 3000 µM lay in the range of 10 to 20%. At human ROCK1, this compound returned a 50% inhibitory concentration (IC50) of under 1 µM.

In the case of `CCc1cncc2cccc(S(=O)(=O)N3CC[C@H](N)C3)c12` [Example 23-1, (S)-3-Amino-1-(4-ethyl-5-isoquinolinesulfonyl)pyrrolidine], in test [1], the inhibition in vivo at 3000 µM was in the range of 10 to 20%. Moreover, the half-maximal inhibitory concentration (IC50) against human ROCK1 was under 1 µM.

On to `Cc1cnc(O)c2cccc(S(=O)(=O)N3CC[C@H](N)C3)c12` [Example 25-1, (S)-3-Amino-1-(1-hydroxy-4-methyl-5-isoquinolinesulfonyl)pyrrolidine], for which the inhibition in vivo at 3000 µM in test [1] lay within 10 to 20%. Moreover, the half-maximal inhibitory concentration (IC50) against human ROCK1 is under 1 µM.

With `Cc1cncc2cccc(S(=O)(=O)N3CC(N)C3)c12` [Example 26, 3-Amino-1-(4-methyl-5-isoquinolinesulfonyl)azetidine], the inhibition in vivo at 3000 µM in test [1] was 5 to 10%. At human ROCK1, this compound came in with a half-maximal inhibitory concentration (IC50) of under 1 µM.
